The values that follow come from patent US20210221834A1, “SWEETENER AND SWEETENED COMPOSITIONS INCORPORATING REBAUDOSIDE N” (CARGILL, INCORPORATED, priority 2013, published 2021).

Each structure is given as a SMILES string. Entries after “also recorded” stand apart in the source; their conditions may differ.

Format in all cases: in vivo, human
Assay [1] can be described thus: Sensory evaluation of three-way blends of reb A, reb B and reb N in water (Example 3). Particulars: 500 ppm (wt/wt) in water, room temperature. On the procedure:
Solutions containing 500 ppm (wt/wt) of blends of reb A, reb B, and reb N in water were prepared and evaluated at room temperature by five scientists with training and experience in the sensory evaluation of steviol glycosides. The samples were evaluated for sweetness intensity and other qualitative attributes and compared against Reb A. The results are shown in the following table: […]

The nature of assay [2]: Sensory evaluation of 4-way blend in deionized water (Example 5). Particulars: 500 ppm in deionized water. Set-up: key to Bitterness / Licorice note: 0=none; 1=trace; 2=faint; 3=slight; 4=mild; 5=moderate; 6=definite; 7=strong; 8=very strong; 9=extreme. On the procedure: Method: Solutions containing 500 ppm Reb A or blends of RebA, RebB, RebD and RebN were prepared in deionized water and evaluated at room temperature by three scientists with training and experience in the sensory evaluation of steviol glycosides. The samples were evaluated for sweetness intensity and other qualitative attributes.

Assay [3] is described as follows: Sensory evaluation in citric/citrate buffer at pH 3.2 (Example 4). Set-up: key to Bitterness intensity: 0=none; 1=trace; 2=faint; 3=slight; 4=mild; 5=moderate; 6=definite; 7=strong; 8=very strong; 9=extreme. On the procedure: Method: Solutions containing 600 ppm (wt/wt) Reb A or blends of Reb A, Reb B and Reb N in citric/citrate buffer at pH 3.2 were prepared and evaluated at room temperature by three scientists with training and experience in the sensory evaluation of steviol glycosides. The samples were evaluated for sweetness intensity and other qualitative attributes.

Assay [4] can be described thus: Sensory evaluation of Reb A, Reb D and Reb N solutions in water (Example 2). Particulars: 500 ppm (wt/wt) in water, room temperature; for Sweetness Intensity (percent sucrose equivalent sweetness): two scientists, sucrose standards 6%, 7%, 8%; for Bitterness: intensity scale 1-9. On the set-up: key to Bitterness: 1 = none; 2 = trace; 3 = faint; 4 = mild; 5 = moderate; 6 = definite; 7 = strong; 8 = very strong; 9 = extreme. On the procedure: Solutions containing 500 ppm (wt/wt) of RebA, RebD and RebN, respectively, in water were prepared and evaluated at room temperature by two scientists with training and experience in the sensory evaluation of steviol glycosides. The samples were evaluated for sweetness intensity and other qualitative attributes. A set of sucrose standards were prepared by dissolving sugar into room temperature water (6%, 7%, 8% by weight) and used as references for sweetness intensity.

The mark [5] stands for this setting: 600 ppm (wt/wt) in citric/citrate buffer pH 3.2.

For the compound `C=C1C[C@@]23CC[C@H]4[C@@](C)(CCC[C@@]4(C)C(=O)O[C@@H]4O[C@H](CO)[C@@H](O)[C@H](O)[C@H]4O)[C@@H]2CC[C@]1(O[C@@H]1O[C@H](CO)[C@@H](O)[C@H](O[C@@H]2O[C@H](CO)[C@@H](O)[C@H](O)[C@H]2O)[C@H]1O[C@@H]1O[C@H](CO)[C@@H](O)[C@H](O)[C@H]1O)C3` [Reb A, Rebaudioside A], in assay [1], the “Sweetness intensity rated by the judges” value is reported as 6.0. In assay [1] (five scientists), the Bitter entry was “moderate”, the Linger result is on record as “moderate”, the “Sweet (quality)” value is given as “poor” and the Sweet onset entry was “slow”. Besides, the Lingering bitter aftertaste result in assay [2] is “moderate”. Further, in assay [2] (room temperature, three scientists), the Sucrose equivalent sweetness is 6%. In assay [2] (intensity scale 0-9), this compound came in with a Bitterness of 6 and a Licorice note of 3. In assay [3] (setting [5]), the Bitter onset result was “extremely rapid”, the Licorice result is listed as “slight”, the Lingering bitterness entry is “strong” and the Sweet profile result was “peaky”. Also, the Sucrose equivalent sweetness in assay [3] (600 ppm (wt/wt) in citric/citrate buffer pH 3.2, room temperature, three scientists) is 7%. In addition, the Bitterness intensity in assay [3] (600 ppm (wt/wt) in citric/citrate buffer pH 3.2, intensity scale 0-9) amounted to 7. Moreover, in assay [4], the “Other Sweetness Quality” value is on record as “spikey; also recorded: worst”, the “Sweetness Linger” value is “moderate”, the “Sweetness Onset” value was “slow” and the “Sweetness Intensity (percent sucrose equivalent sweetness)” value worked out at 6% SE. Besides, the Bitterness in assay [4] is recorded as 5.
For the compound `C=C1C[C@@]23CC[C@H]4[C@@](C)(CCC[C@@]4(C)C(=O)O[C@@H]4O[C@H](CO)[C@@H](O)[C@H](O)[C@H]4O[C@@H]4O[C@H](CO)[C@@H](O)[C@H](O)[C@H]4O)[C@@H]2CC[C@]1(O[C@@H]1O[C@H](CO)[C@@H](O)[C@H](O[C@@H]2O[C@H](CO)[C@@H](O)[C@H](O)[C@H]2O)[C@H]1O[C@@H]1O[C@H](CO)[C@@H](O)[C@H](O)[C@H]1O)C3` [Reb D, Rebaudioside D], in assay [4], the “Other Sweetness Quality” value is “rounded, and syrupy and best”; the “Sweetness Linger” value is reported as “slight”; the “Sweetness Onset” value is “quick”; the “Sweetness Intensity (percent sucrose equivalent sweetness)” value came out at 7% SE. In assay [4], this compound gave a Bitterness of 2.
Turning to `C=C1C[C@@]23CC[C@H]4[C@@](C)(CCC[C@@]4(C)C(=O)O[C@@H]4O[C@H](CO)[C@@H](O)[C@H](O[C@@H]5O[C@H](CO)[C@@H](O)[C@H](O)[C@H]5O)[C@H]4O[C@@H]4O[C@@H](C)[C@H](O)[C@@H](O)[C@H]4O)[C@@H]2CC[C@]1(O[C@@H]1O[C@H](CO)[C@@H](O)[C@H](O[C@@H]2O[C@H](CO)[C@@H](O)[C@H](O)[C@H]2O)[C@H]1O[C@@H]1O[C@H](CO)[C@@H](O)[C@H](O)[C@H]1O)C3` [Reb N], in assay [4], the “Other Sweetness Quality” value is “rounded, and syrupy, and best”; the “Sweetness Linger” value was “moderate”; the “Sweetness Onset” value is recorded as “quick”; the “Sweetness Intensity (percent sucrose equivalent sweetness)” value was 7.5% SE. Moreover, the Bitterness in assay [4] is 1.
